Here are results for ten compounds from US8871735B2, “Methods and compositions for providing cardiac protection” (University of Medicine and Dentistry of New Jersey, priority 2008, dated 2014).

Read-outs that look alike come from different tables or passages of the source.

The subject of one series is H9C2 cells. The series can be described thus: cAMP accumulation in H9C2 cells. In kind it is cell-based. The settings on record: 5 μM ISO, 3 minutes, 10 μM drug. An excerpt:
[…] Fludarabine ((+)-2-Fluoro-9-(5-O-phosphono-β-D-arabinofuranosyl)-9H-purin-6-amine) and Cladribine (2-chloro-2′-deoxyadenosine) are anti-cancer drugs, Adefovir (Bis(2,2-dimethylpropanoyloxymethyl)[2-(6-amino-9H-purin-9-yl)ethoxymethyl]phosphonate) and Zidovudine are anti-HIV drugs. Zidovudine-TP is a metabolite of zidovudine which inhibits virus replication. TP; triphosphate. 3-Deazaadenosine, Formycin A (7-Amino-3-(β-D-ribofuranosyl)-1H-pyrazolo[4,3-d]pyrimidine), 2-Far (2-Fluoroadenosine), formycin A ((2S,3R,4S,5R)-2-(7-amino-2H-pyrazolo[5,4-e]pyramidin-3-yl-5-(hydroxymeth-yl)oxolane-3,4-diol), 2-FD (2-Fluoro-2′-deoxyadenosine) and 2′5′ ddAdo (2′5′-dideoxyadenosine) are experimental drugs.
(§1) Mice were anesthetized with 2.5% tribromoethanol (0.010 to 0.015 mL per gram of body weight) injected intraperitoneally, and echocardiography was performed with ultrasonography (ACUSON Sequoia C256, Siemens Medical Solutions, Malvern, Pa.). For acute injection of isoproterenol, forskolin and milrinon, a PE-10 catheter was inserted into the right jugular vein, and drugs were injected at the rate of 1 μl/s. cAMP accumulation assay in H9C2 cells, a cardiac myoblast cell line, was examined as previously described.

Series [1] relates to cardiac myocytes. In words: ISO-induced apoptosis in cultured cardiac myocytes (DNA fragmentation ELISA). In kind it is cell-based. The note with it: 100 μM ISO, 48 h.
Protocol: Cultured cardiac myocytes were incubated with 100 μM ISO in the presence or absence of AC5 inhibitors at the indicated concentrations for 48 h.
The target of a further series is type 5 AC (Homo sapiens, UniProt O95622). In words: Double-reciprocal plots of type 5 AC catalytic activity against ATP.
Sequence of type 5 AC (O95622 whole entry, the tested form may be a part): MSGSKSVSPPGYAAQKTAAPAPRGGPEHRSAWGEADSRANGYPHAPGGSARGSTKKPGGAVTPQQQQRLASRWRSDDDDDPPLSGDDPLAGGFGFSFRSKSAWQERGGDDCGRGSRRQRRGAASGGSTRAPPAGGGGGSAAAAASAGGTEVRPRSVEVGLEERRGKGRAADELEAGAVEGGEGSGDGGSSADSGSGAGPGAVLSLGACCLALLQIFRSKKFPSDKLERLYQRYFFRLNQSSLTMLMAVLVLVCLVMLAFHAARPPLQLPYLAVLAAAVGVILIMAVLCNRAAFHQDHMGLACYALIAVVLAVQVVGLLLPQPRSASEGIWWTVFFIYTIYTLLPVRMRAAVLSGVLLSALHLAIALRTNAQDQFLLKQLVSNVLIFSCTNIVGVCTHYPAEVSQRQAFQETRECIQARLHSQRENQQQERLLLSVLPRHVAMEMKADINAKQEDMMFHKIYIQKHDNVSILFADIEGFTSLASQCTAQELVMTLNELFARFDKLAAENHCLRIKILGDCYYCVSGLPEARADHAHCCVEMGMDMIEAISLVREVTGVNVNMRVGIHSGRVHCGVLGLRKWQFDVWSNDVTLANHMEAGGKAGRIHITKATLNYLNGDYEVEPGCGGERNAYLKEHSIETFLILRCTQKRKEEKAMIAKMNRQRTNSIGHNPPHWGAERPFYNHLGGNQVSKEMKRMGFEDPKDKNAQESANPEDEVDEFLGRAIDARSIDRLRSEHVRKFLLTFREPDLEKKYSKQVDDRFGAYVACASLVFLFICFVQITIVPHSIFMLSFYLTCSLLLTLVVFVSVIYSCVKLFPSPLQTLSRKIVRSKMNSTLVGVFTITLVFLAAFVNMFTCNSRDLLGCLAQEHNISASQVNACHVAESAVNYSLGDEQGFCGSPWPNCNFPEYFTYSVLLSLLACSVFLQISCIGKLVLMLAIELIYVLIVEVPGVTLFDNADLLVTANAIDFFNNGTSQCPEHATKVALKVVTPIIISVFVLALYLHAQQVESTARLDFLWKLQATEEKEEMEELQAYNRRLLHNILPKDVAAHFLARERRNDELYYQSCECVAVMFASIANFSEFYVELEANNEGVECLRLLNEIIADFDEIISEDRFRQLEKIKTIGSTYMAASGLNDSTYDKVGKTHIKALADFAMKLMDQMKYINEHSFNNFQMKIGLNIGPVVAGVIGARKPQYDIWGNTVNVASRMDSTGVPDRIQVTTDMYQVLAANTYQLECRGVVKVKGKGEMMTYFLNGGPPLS
The test system of series [2] is C57Bl/6 mice, chronic ISO infusion. The series can be described thus: Chronic ISO infusion heart failure model. The settings on record: for ISO-induced decrease in LVEF (and FS): ISO 60 mg/kg/d 7 days, Ara-Ade 20 and 100 mg/kg/day, 2′5′ ddAdo 20 mg/kg/day. In kind it is in vivo, mouse.
Text: (§2) ISO with or without AC5 inhibitors were chronically infused with osmotic mini-pump implanted subcutaneously at indicated doses for 1 week in c57Bl/6 mice. Mice were then subjected to echocardiography (a) and the hearts were removed and subjected to pathological examinations such as myocardial apoptosis (b) and fibrosis (c). n=4-8.
(§3) In C57Bl/6 mice, ISO with or without AC5 inhibitors or metoprolol were chronically infused with an osmotic mini-pump at the indicated doses for 1 week. Mice were then subjected to echocardiography (a) and heart tissue were subjected to a myocardial apoptosis assay (b). *, p<0.01 vs vehicle. #, p<0.05 vs vehicle. .dagger., p<0.01 vs ISO. .dagger-dbl., p<0.05 vs ISO. n=4-15. […] Comparisons between multiple groups were made using ANOVA with post-hoc tests.
Tenofovir diphosphate (PMPA-PP), zidovudine monophosphate (MP), zidovudine diphosphate (PP), zidovudine triphosphate (TP), famciclovir penciclovir and valaciclovir were purchased from Moravek. Formycin A (FMA) and Formycin B (FMB) were purchased from Berry and Associates. All other reagents were from Sigma unless specified. Long-term infusion of isoproterenol (Sigma, St. Louis, Mo.) was performed for 7 days at a dose of 60 mg/kg/d with or without AC5 inhibitors by using a miniosmotic pump (ALZET model 2001, DURECT Corp, Cupertino, Calif.). Control mice received vehicle in pumps. Pumps were removed 24 hours before biochemical and physiological studies. Experiments were performed in 3- to 5-month-old male C57Bl/6, and in AC5Tg transgenic mice. This study was approved by the Animal Care and Use Committee at New Jersey Medical School.
as §1

The subject of series [3] is AC5. In words: AC inhibition, recombinant AC proteins: AC5. It is filed as biochemical. The note with it: for Selectivity ratio for AC5, AC5/AC2: ratio of IC50 for AC5 to that for AC2; for Selectivity ratio for AC5, AC5/AC3: ratio of IC50 for AC5 to that for AC3.
Series [4] addresses T1, AC5 (UniProt P30803).
T1 construct: IC50 AC5; other: recombinant AC proteins; other: THFA: in the presence of Gs-α/GTPαS/forskolin
The series can be described thus: AC inhibition, recombinant AC proteins: AC5. It is filed as biochemical.

The test system of another series is AC. In words: cAMP production in membrane preparations from mouse heart. It is filed as biochemical. The note with it: 50 μM forskolin, 10 μM drug. As for the experimental part:
Such membrane permeability was examined using whole cell, which is addressed in FIG. 11b). cAMP production was measured with 50 μM forskolin in the presence or absence of 10 μM of the indicated drugs. n=2. (b) cAMP accumulation is shown in H9C2 cells. […] Ara-Ade (Adenine 9-β-D-arabinofuranoside) is an anti-herpes simplex drug. Fludarabine ((+)-2-Fluoro-9-(5-O-phosphono-β-D-arabinofuranosyl)-9H-purin-6-amine) and Cladribine (2-chloro-2′-deoxyadenosine) are anti-cancer drugs, Adefovir (Bis(2,2-dimethylpropanoyloxymethyl)[2-(6-amino-9H-purin-9-yl)ethoxymethyl]phosphonate) and Zidovudine are anti-HIV drugs. Zidovudine-TP is a metabolite of zidovudine which inhibits virus replication. TP; triphosphate. 3-Deazaadenosine, Formycin A (7-Amino-3-(β-D-ribofuranosyl)-1H-pyrazolo[4,3-d]pyrimidine), 2-Far (2-Fluoroadenosine), formycin A ((2S,3R,4S,5R)-2-(7-amino-2H-pyrazolo[5,4-e]pyramidin-3-yl-5-(hydroxymeth-yl)oxolane-3,4-diol), 2-FD (2-Fluoro-2′-deoxyadenosine) and 2′5′ ddAdo (2′5′-dideoxyadenosine) are experimental drugs.
Various compounds with adenine-like backbone structure were screened because this structure is essential for both AC inhibition and plasma membrane permeability. Drug effects on AC activity was examined by using membrane preparations from mouse heart and striatum, in which AC5 provides 20% and 80% of total AC activity, respectively. […]

The test system of series [5] is C57Bl/6 mice motor function. The series can be described thus: Rotarod performance test and pole test. It is filed as in vivo, mouse. The note with it: Ara-Ade by mini-osmotic pump; MPTP 30 mg/kg i.p. daily for 5 days. As for the experimental part: In C57Bl/6 mice, Ara-Ade was chronically infused with an osmotic mini-pump at the indicated doses for 5 days. a) Each mouse was placed on a rod subjected to evaluate Rotarod performance. Mice were left for 1 min on the rod for habituation. The rod rotated gradually increasing from 4 to 40 rpm over the course of 5 min, and the time that mice could stay without failing was recorded. Five trials were conducted for each individual 10-25 min apart. As a positive control, 1-methyl 4-phenyl 1,2,3,6-tetrahydropyridine (MPTP) was intraperitoneally injected for the indicated dose for 5 days. *, p<0.01 relative to vehicle. #, p<0.05 relative to vehicle. n=6-7. b) To evaluate bradykinesia, a pole test was performed. Mice were placed head upward on the top of a rough surfaced pole that was wrapped with gauze to prevent slipping. The time until the mouse turned completely downward (open bars, TTURN) and the time until it climbed down to the floor (closed bars, TLA) were measured.
Four days after the implantation, Rotarod performance test and pole test were examined as previously described. For MPTP injection (1-methyl 4-phenyl 1,2,3,6-tetrahydropyridine), mice were injected intraperitoneally (i.p.) with 0.1 mL of PBS or MPTP dissolved in PBS at 24-hour intervals for 5 days. The daily dose of MPTP was 30 mg/kg. […]

For series [6], the system named is cardiac myocytes. The settings on record: cited from earlier work.
Series [7] concerns AC5. The settings on record: cited from earlier work.
The subject of series [8] is cardiac myocytes. The series can be described thus: ISO-induced cell contraction in cultured cardiac myocytes. It is filed as cell-based. The note with it: 10 μM.
The target in series [9] is AC2 (UniProt P26769). The series can be described thus: AC inhibition, recombinant AC proteins: AC2. In kind it is biochemical.
Series [10] concerns cardiac myocytes. In words: ISO-stimulated cAMP accumulation in cultured cardiac myocytes. It is filed as cell-based, mouse. The note with it: 10 μM compound.
For another series, the target named is T2, AC3 (Rattus norvegicus, UniProt P21932).
T2 construct: made in house
T2 sequence (P21932 whole entry): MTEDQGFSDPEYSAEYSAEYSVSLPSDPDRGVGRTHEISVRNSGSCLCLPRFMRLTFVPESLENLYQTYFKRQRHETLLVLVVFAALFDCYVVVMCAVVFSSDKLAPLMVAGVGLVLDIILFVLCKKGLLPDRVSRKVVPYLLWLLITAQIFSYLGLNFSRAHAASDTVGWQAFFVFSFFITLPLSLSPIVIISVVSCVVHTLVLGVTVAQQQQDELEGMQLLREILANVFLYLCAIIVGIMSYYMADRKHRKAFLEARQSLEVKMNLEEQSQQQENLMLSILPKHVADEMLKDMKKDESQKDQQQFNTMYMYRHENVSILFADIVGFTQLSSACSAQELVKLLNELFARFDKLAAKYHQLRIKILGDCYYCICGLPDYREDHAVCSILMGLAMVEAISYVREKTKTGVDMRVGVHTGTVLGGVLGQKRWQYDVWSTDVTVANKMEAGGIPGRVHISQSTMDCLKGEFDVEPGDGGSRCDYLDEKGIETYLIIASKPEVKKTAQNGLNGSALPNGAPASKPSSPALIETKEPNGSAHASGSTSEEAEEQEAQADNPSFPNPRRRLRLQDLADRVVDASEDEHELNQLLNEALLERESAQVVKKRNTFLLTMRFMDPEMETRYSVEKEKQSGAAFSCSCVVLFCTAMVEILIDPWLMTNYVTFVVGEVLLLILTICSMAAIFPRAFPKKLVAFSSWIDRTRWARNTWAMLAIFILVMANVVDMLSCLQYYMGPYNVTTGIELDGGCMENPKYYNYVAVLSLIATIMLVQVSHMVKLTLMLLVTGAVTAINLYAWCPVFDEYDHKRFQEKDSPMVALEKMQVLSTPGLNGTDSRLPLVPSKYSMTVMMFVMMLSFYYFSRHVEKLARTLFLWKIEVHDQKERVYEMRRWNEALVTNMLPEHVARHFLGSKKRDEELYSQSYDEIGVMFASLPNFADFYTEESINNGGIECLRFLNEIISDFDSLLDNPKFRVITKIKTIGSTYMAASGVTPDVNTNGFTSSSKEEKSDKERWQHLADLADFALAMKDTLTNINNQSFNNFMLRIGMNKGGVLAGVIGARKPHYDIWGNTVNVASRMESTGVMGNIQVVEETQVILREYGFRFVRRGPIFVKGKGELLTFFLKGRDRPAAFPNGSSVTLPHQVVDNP
The series can be described thus: AC inhibition, recombinant AC proteins: AC3. It is filed as biochemical.

For series [11], the system named is AC2. The settings on record: previously noted; cited from earlier work.
Another series concerns mice. In words: Basal cardiac function (echocardiography) under chronic drug infusion alone. In kind it is in vivo, mouse. The settings on record: chronic infusion of drug alone (3 days to 1 week).
Text: as §2, §3
Mice were anesthetized with 2.5% tribromoethanol (0.010 to 0.015 mL per gram of body weight) injected intraperitoneally, and echocardiography was performed with ultrasonography (ACUSON Sequoia C256, Siemens Medical Solutions, Malvern, Pa.). For acute injection of isoproterenol, forskolin and milrinon, a PE-10 catheter was inserted into the right jugular vein, and drugs were injected at the rate of 1 μl/s. cAMP accumulation assay in H9C2 cells, a cardiac myoblast cell line, was examined as previously described. […]

The next series concerns patients. The note with it: BHAT; cited from earlier work.
In series [12] the test system is isolated perfused rat hearts. The note with it: cited from earlier work.

Protocol for type 5 AC: Hearts and striatum were dissected from the mice and membrane preparations were made as previously described. This crude membrane preparation was used in the AC assay. AC activity was measured by a modification of the method of Salomon et al. as previously described. […] Double-reciprocal plots were examined as previously described.

On to `C[C@H]1O[C@@H](n2cnc3c(N)ncnc32)C[C@@H]1O` [2′5′-dd-Ado, 2′5′-dideoxyadenosine], for which the “inhibition of cAMP accumulation in H9C2 cells” value in the series on H9C2 cells is given as “greatest inhibition”. Moreover, the “ISO-induced apoptosis in cultured cardiac myocytes” value in the series on cardiac myocytes [1] was “abolished”. For the same compound, at type 5 AC, the “mode of inhibition with respect to ATP” value is given as “non-competitive”. For the same compound, the “ISO-induced decrease in LVEF (and FS)” value in series [2] was “rescued LVEF and FS reduction”. Moreover, in [2] (chronic ISO infusion), the ISO-induced cardiac fibrosis result is recorded as “significantly inhibited”; the “ISO-induced myocardial apoptosis in vivo” value was “significantly inhibited”; the “ISO-induced wall thickening (DESP, DPW)” value is reported as “neither Ara-Ade nor 2′5′ ddAdo inhibited”; the “LVW/BW and myocyte cross sectional area” value is “increased”. Further, in the series with AC5 [3], the “Selectivity ratio for AC5, AC5/AC2” value is reported as 0.00067 and the “Selectivity ratio for AC5, AC5/AC3” value came to 0.0063.
On to `Nc1ncnc2c1ncn2[C@H]1C[C@H](OP(=O)(O)O)[C@@H](CO)O1` [2′-d-3′-AMP], for which the IC50 at AC5 [4] (read-out: IC50 for AC5) amounted to 0.82 µM.
For `Nc1nccc2c1ncn2[C@@H]1O[C@H](CO)[C@@H](O)[C@H]1O` [3-deazaadenosine, 3-Deazaadenosine], the “inhibition of cAMP accumulation in H9C2 cells” value in the series on H9C2 cells is “little inhibition”. For the same compound, the “ratio of inhibition between the heart membrane and the striatum membrane” value with AC is on record as “less than one”.
Turning to `Nc1ncnc2c1ncn2[C@@H]1O[C@H](CO)[C@@H](OP(=O)(O)O)[C@H]1O` [3′-AMP], the IC50 at AC5 [4] (THFA: in the presence of Gs-α/GTPαS/forskolin, read-out: IC50 for AC5) worked out at 14.6 µM.
Regarding `CN1CC=C(c2ccccc2)CC1` [MPTP, 1-methyl 4-phenyl 1,2,3,6-tetrahydropyridine], the “Rotarod and pole test performance” value in series [5] is on record as “significantly impaired”.
`Nc1ncc2c(n1)CC(c1ccco1)CC2=O` (stereo not drawn) [NKY80, 2-amino-7-(2-furanyl)-7,8-dihydro-5(6H)-quinazoline]: in the series on cardiac myocytes [6], the “inhibition of cAMP accumulation in cultured cardiac myocytes” value is given as “did not inhibit cAMP accumulation”. Moreover, the “inhibition of purified AC5 protein in vitro” value in the series with AC5 [7] was “moderate inhibition”.
Take `Nc1ncnc2c1ncn2C1CCC(C(=O)NO)C1` (stereo not drawn) [PMC-6]: the “inhibition of ISO-induced cell contraction” value with cardiac myocytes [8] is “did not inhibit”. Besides, the concentration for half-maximal inhibition (IC50) on AC2 [9] was determined as 65.3 µM; at AC5 [4] (recombinant AC proteins, read-out: IC50 AC5), 0.32 µM; on AC3, 11.1 µM. Also, in the series with cardiac myocytes [1], the “ISO-induced apoptosis in cultured cardiac myocytes” value is given as “abolished”. The “decrease in ISO-induced cAMP production / accumulation in cultured cardiac myocytes” value with cardiac myocytes [10] is reported as 50%. Moreover, in the series on AC5 [3], the “Selectivity ratio for AC5, AC5/AC2” value is on record as 0.0049. Besides, in the series with AC5 [3], the “Selectivity ratio for AC5, AC5/AC3” value was 0.029.
On to `Nc1ncnc2c1ncn2C1CCCO1` (stereo not drawn) [THFA, 9-(tetrahydro-2-furyl)adenine], for which the “selectivity ratio between AC6 and AC2” value with AC2 [11] is recorded as 1.8. Also, the “selectivity ratio between AC5 and AC2” value in the series on AC5 [3] is 130.
Consider `COCCc1ccc(OCC(O)CNC(C)C)cc1` (stereo not drawn) [metoprolol], for which, in the series on mice, the “basal LVEF” value is “decreased”. Besides, the “ISO-induced decrease in LVEF (and FS)” value in series [2] is recorded as “attenuated ISO-induced cardiac dysfunction”. For the same compound, in [2] (listed as Metoprolol), the “ISO-induced decrease in LVEF (and FS)” value was “rescued ISO-induced LVEF decrease”. For the same compound, in [2] (chronic ISO infusion), the “HR decreased by chronic ISO” value was “rescue decreased HR”; the “ISO-induced myocardial apoptosis in vivo” value is listed as “to a lesser degree than Ara-Ade”; the “ISO-induced wall thickening (DESP, DPW)” value is “did not show significant increase”.
As to `CC(C)NCC(O)COc1cccc2ccccc12` (stereo not drawn) [propranolol], in the series with patients, the “decrease of sudden cardiac death, patients with a history of HF” value was 47% and the “decrease of sudden cardiac death, patients with a history of MI” value is 28%. Moreover, the “arrhythmia in low flow perfusion / NE model” value in series [12] is listed as “effectively reduced arrhythmia”.
